In one data set the test system is CYP3A. To be noted: cited from earlier work.
Data set [1] can be described thus: Stability of ilaprazole racemate stock solution. The class given is physicochemical. To be noted: stock solution in acetonitrile, −80 °C for 15 days.

Consider `COc1ccnc(C[S+]([O-])c2nc3cc(-n4cccc4)ccc3[nH]2)c1C` (racemic) [ilaprazole racemate, ilaprazole], for which the Metabolizing enzyme entry in the data set on CYP3A was “mainly metabolized by CYP3A”. The “Stability of stock solution (in words)” value in data set [1] is recorded as “stable”.

The record behind these values is paper PMC7775851 (Journal of Pharmaceutical Analysis, 2019).
